For 44 molecules, IC50, Cmax and AUC(0-t) results are on record in ChEMBL document CHEMBL1152369, “Unsymmetrical non-adamantyl N,N'-diaryl urea and amide inhibitors of soluble expoxide hydrolase” (Bioorg Med Chem Lett, 2009).

The target in data set [1] is T1, Bifunctional epoxide hydrolase 2 (Homo sapiens, UniProt P34913).
T1 sequence (P34913 whole entry): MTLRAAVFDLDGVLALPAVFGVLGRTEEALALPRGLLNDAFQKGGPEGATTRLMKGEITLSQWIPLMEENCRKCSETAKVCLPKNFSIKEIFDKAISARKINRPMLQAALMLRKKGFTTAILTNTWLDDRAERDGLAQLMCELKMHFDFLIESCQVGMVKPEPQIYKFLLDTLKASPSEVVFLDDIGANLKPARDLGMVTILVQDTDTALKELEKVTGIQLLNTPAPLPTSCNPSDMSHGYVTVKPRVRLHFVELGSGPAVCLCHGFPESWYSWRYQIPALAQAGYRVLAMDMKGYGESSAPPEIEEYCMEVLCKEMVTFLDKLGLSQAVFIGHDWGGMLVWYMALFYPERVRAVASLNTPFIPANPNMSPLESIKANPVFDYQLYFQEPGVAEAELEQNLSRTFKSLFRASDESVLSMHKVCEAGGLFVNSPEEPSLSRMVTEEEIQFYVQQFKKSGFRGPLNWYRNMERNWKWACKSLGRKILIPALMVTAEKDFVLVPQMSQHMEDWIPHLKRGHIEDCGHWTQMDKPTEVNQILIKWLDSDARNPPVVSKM
The data set can be described thus: Inhibition of human soluble epoxide hydrolase by fluorescent endpoint assay.

Data set [2] is described as follows: Cmax in Sprague-Dawley rat at 5 mg/kg, po by LC/MS/MS analysis. More on the design: dose 5 mg/kg, route oral. The class given is ADME, organism-based. The note with it: in vivo.
The nature of data set [3]: AUC (0 to 24 hrs) in Sprague-Dawley rat at 5 mg/kg, po by LC/MS/MS analysis. The class given is ADME, organism-based. More on the design: time < 24 hr, dose 5 mg/kg, route oral. The note with it: plasma.

pIC50: −log10 of the molar value.

By pIC50 is commonly meant −log10 of the IC50, conventionally taken in molar units. A higher pIC50 goes with a low IC50. The term Cmax denotes the highest concentration seen after dosing. What is called AUC(0-t) is the area under the concentration-time curve up to a stated or last time point. `O=C(Nc1ccc(C(F)(F)F)cc1)Nc1cccc(OCCCN2CCOCC2)c1`: the pIC50 in data set [1] is 9.00. Moreover, the Cmax in data set [2] turned out to be 5 ng/mL. In data set [3], the AUC(0-t) at 24 h came to 8 ng·h/mL.

Turning to `O=C(Nc1ccc(OC(F)(F)F)cc1)Nc1cccc(OCCCN2CCOCC2)c1`, the negative-log IC50 (pIC50) in data set [1] was 8.10.

Take `O=C(Nc1cccc(OCCCN2CCOCC2)c1)NC1CCCCC1`: in data set [2], the peak level (Cmax) was 102 ng/mL. Also, the AUC(0-t) at 24 h in data set [3] came to 131 ng·h/mL.

As to `O=C(Nc1ccccc1)Nc1cccc(OCCCN2CCOCC2)c1`, the pIC50 in data set [1] was 7.42. The same molecule came in with a Cmax in data set [2] of 1570 ng/mL. In data set [3], the exposure AUC(0-t) at 24 h was 3570 ng·h/mL.

Turning to `O=C(CC12CC3CC(CC(C3)C1)C2)Nc1ccc(OCCCN2CCOCC2)cc1`, the pIC50 in data set [1] is 8.89.

Take `O=C(Nc1ccc(F)c(OCCCN2CCOCC2)c1)NC1CCCCC1`: the negative logarithm of the IC50 (pIC50) in data set [1] is 8.19.

Consider `O=C(Cc1ccc2c(c1)OCO2)Nc1cccc(OCCCN2CCOCC2)c1`, for which the pIC50 in data set [1] is 6.44.

With `CN(C)c1cccc(NC(=O)Nc2cccc(OCCCN3CCOCC3)c2)c1`, in data set [1], the negative logarithm of the IC50 (pIC50) was 6.62.

In the case of `O=C(Nc1ccc(Cl)cc1)Nc1ccc(F)c(OCCCN2CCOCC2)c1`, in data set [1], the pIC50 is 8.32.

On to `O=C(Cc1ccc(F)c(F)c1)Nc1cccc(OCCCN2CCOCC2)c1`, for which the pIC50 in data set [1] was 6.49.

For `CC(C)(C)NC(=O)Nc1cccc(OCCCN2CCOCC2)c1`, the pIC50 in data set [1] is 5.98.

On to `O=C(Nc1ccc(Cl)cc1)Nc1ccc(OCCCN2CCOCC2)cc1`, for which, in data set [1], the pIC50 is 8.82.

In data set [1], `O=C(Nc1ccc(F)cc1)Nc1cccc(OCCCN2CCOCC2)c1` showed a pIC50 of 7.85. For the same molecule, in data set [2], the Cmax worked out at 123 ng/mL. The AUC(0-t) at 24 h in data set [3] worked out at 491 ng·h/mL.

In the case of `O=C(Cc1cccnc1)Nc1cccc(OCCCN2CCOCC2)c1`, the negative logarithm of the IC50 (pIC50) in data set [1] is 4.85.

On to `O=C(Nc1ccc(OCCCN2CCOCC2)cc1)Nc1ccc(OC(F)(F)F)cc1`, for which, in data set [1], the negative logarithm of the IC50 (pIC50) was 9.10.

On to `O=C(Nc1ccc(F)cc1)Nc1ccc(F)c(OCCCN2CCOCC2)c1`, for which the negative-log IC50 (pIC50) in data set [1] is 7.40.

In data set [1], `O=C(CC12CC3CC(CC(C3)C1)C2)Nc1ccc(F)c(OCCCN2CCOCC2)c1` gave a negative-log IC50 (pIC50) of 8.18.

For the molecule `CC(C)(C)CC(=O)Nc1cccc(OCCCN2CCOCC2)c1`, in data set [1], the pIC50 is 5.81.

`O=C(Cc1ccccc1)Nc1ccc(OCCCN2CCOCC2)cc1` showed a pIC50 in data set [1] of 6.06.

In data set [1], `O=C(Cc1ccc(C(F)(F)F)cc1)Nc1ccc(OCCCN2CCOCC2)cc1` showed a pIC50 of 7.27.

With `O=C(Cc1ccc(OC(F)(F)F)cc1)Nc1ccc(OCCCN2CCOCC2)cc1`, the pIC50 in data set [1] is 7.38.

Take `O=C(Cc1ccc(Cl)cc1)Nc1cccc(OCCCN2CCOCC2)c1`: the pIC50 in data set [1] is 6.94.

As to `O=C(Nc1ccccc1)Nc1ccc(F)c(OCCCN2CCOCC2)c1`, the pIC50 in data set [1] is 7.09.

As for `O=C(Nc1cccc(OCCCN2CCOCC2)c1)Nc1cccc(C(F)(F)F)c1`, the pIC50 in data set [1] is 7.86.

Molecule `O=C(Nc1cccc(OCCCN2CCOCC2)c1)Nc1ccc2c(c1)OCO2` gave a pIC50 in data set [1] of 7.48. In data set [2], the peak concentration (Cmax) came out at 218 ng/mL. The molecule further yielded an exposure AUC(0-t) at 24 h in data set [3] of 753 ng·h/mL.

For the molecule `O=C(Cc1ccc(Cl)cc1)Nc1ccc(OCCCN2CCOCC2)cc1`, in data set [1], the pIC50 is 6.85.

Consider `O=C(Nc1cccc(OCCCN2CCOCC2)c1)Nc1c(F)cc(F)cc1F`, for which, in data set [1], the negative-log IC50 (pIC50) is 5.73.

In turn, `O=C(Nc1ccc(F)c(OCCCN2CCOCC2)c1)NC12CC3CC(CC(C3)C1)C2` gave a pIC50 in data set [1] of 9.10.

`O=C(Nc1ccc(C(F)(F)F)cc1)Nc1ccc(F)c(OCCCN2CCOCC2)c1` gave a pIC50 in data set [1] of 8.89.

`O=C(Nc1cccnc1)Nc1cccc(OCCCN2CCOCC2)c1` showed a pIC50 in data set [1] of 5.30.

In the case of `O=C(Nc1ccc(OC(F)(F)F)cc1)Nc1ccc(F)c(OCCCN2CCOCC2)c1`, the pIC50 in data set [1] was 9.10.

Turning to `O=C(Nc1ccccc1)Nc1ccc(OCCCN2CCOCC2)cc1`, in data set [1], the pIC50 is 7.41.

For `O=C(Nc1ccc(OCCCN2CCOCC2)cc1)Nc1ccc(C(F)(F)F)cc1`, the negative-log IC50 (pIC50) in data set [1] is 9.10. For the same molecule, the maximum concentration (Cmax) in data set [2] was found to be 263 ng/mL. Also, the AUC(0-t) at 24 h in data set [3] was found to be 1050 ng·h/mL.

`O=C(Nc1cccc(OCCCN2CCOCC2)c1)Nc1ccc(F)c(F)c1` had a pIC50 in data set [1] of 7.96. The molecule also came in with a Cmax in data set [2] of 3 ng/mL. Further, in data set [3], the area under the curve AUC(0-t) at 24 h is 3 ng·h/mL.

`O=C(Cc1ccc(OC(F)(F)F)cc1)Nc1cccc(OCCCN2CCOCC2)c1` gave a negative-log IC50 (pIC50) in data set [1] of 7.37.

In the case of `O=C(Cc1ccc(OC(F)(F)F)cc1)Nc1ccc(F)c(OCCCN2CCOCC2)c1`, the negative logarithm of the IC50 (pIC50) in data set [1] was 6.84.

Molecule `O=C(CC12CC3CC(CC(C3)C1)C2)NC1CCCC(OCCCN2CCOCC2)C1` (stereo not drawn) gave a negative logarithm of the IC50 (pIC50) in data set [1] of 8.28. Compared with the last molecule, the pIC50 is 1.44 log units higher.

On to `O=C(NC1CCCC(OCCCN2CCOCC2)C1)NC12CC3CC(CC(C3)C1)C2` (stereo not drawn), for which, in data set [1], the pIC50 is 8.60.

With `O=C(Nc1cccc(OCCCN2CCOCC2)c1)Nc1c(Cl)cccc1Cl`, the pIC50 in data set [1] is 5.00.

`O=C(Cc1ccc(F)cc1)Nc1cccc(OCCCN2CCOCC2)c1` showed a pIC50 in data set [1] of 6.26. Moreover, the concentration in data set [2] peaked (Cmax) at 48 ng/mL. The same molecule returned an AUC(0-t) at 24 h in data set [3] of 57 ng·h/mL.

As for `O=C(Nc1ccc(Cl)cc1)Nc1cccc(OCCCN2CCOCC2)c1`, the pIC50 in data set [1] was 8.70. In data set [2], the Cmax is 6 ng/mL. In data set [3], this molecule showed an AUC(0-t) at 24 h of 9 ng·h/mL.

`O=C(Cc1ccc(C(F)(F)F)cc1)Nc1ccc(F)c(OCCCN2CCOCC2)c1` had a negative logarithm of the IC50 (pIC50) in data set [1] of 6.81.

The molecule `O=C(Nc1cccc(OCCCN2CCOCC2)c1)Nc1ccc(F)cc1F` showed a negative logarithm of the IC50 (pIC50) in data set [1] of 6.92.

For `O=C(Nc1ccc(OCCCN2CCOCC2)cc1)NC1CCCCC1`, in data set [1], the pIC50 was 8.27. Further, the maximum concentration (Cmax) in data set [2] was 669 ng/mL. The AUC(0-t) at 24 h in data set [3] came to 863 ng·h/mL.
